Assay: isobaric coefficient of expansion
Conditions: Liquid, Micro DSCII

CCCC[n+]1ccn(C)c1.O=S(=O)([N-]S(=O)(=O)C(F)(F)F)C(F)(F)F
isobaric coefficient of expansion
Conditions | 5000 kPa | 10000 kPa | 15000 kPa | 20000 kPa | 25000 kPa | 30000 kPa | 35000 kPa | 40000 kPa | 45000 kPa | 50000 kPa
278.15 K | 0.000672 1/K | 0.000661 1/K | 0.000651 1/K | 0.000643 1/K | 0.000632 1/K | 0.000627 1/K | 0.000618 1/K | 0.000612 1/K | 0.000602 1/K | 0.000594 1/K
288.15 K | 0.000665 1/K | 0.000656 1/K | 0.000646 1/K | 0.000638 1/K | 0.000632 1/K | 0.000622 1/K | 0.000615 1/K | 0.000606 1/K | 0.000599 1/K | 0.000594 1/K
298.15 K | 0.000662 1/K | 0.000653 1/K | 0.000642 1/K | 0.000633 1/K | 0.000626 1/K | 0.000616 1/K | 0.000607 1/K | 0.000599 1/K | 0.000592 1/K | 0.000586 1/K
308.15 K | 0.000657 1/K | 0.000647 1/K | 0.000636 1/K | 0.000627 1/K | 0.000617 1/K | 0.00061 1/K | 0.000602 1/K | 0.000595 1/K | 0.000586 1/K | 0.000578 1/K
318.15 K | 0.00065 1/K | 0.000646 1/K | 0.000634 1/K | 0.000623 1/K | 0.000614 1/K | 0.000605 1/K | 0.000597 1/K | 0.000588 1/K | 0.000581 1/K | 0.000573 1/K
328.15 K | 0.000665 1/K | 0.000649 1/K | 0.000636 1/K | 0.000625 1/K | 0.000614 1/K | 0.000603 1/K | 0.000595 1/K | 0.000582 1/K | 0.000578 1/K | 0.000569 1/K
338.15 K | 0.000646 1/K | 0.000635 1/K | 0.000625 1/K | 0.000615 1/K | 0.000605 1/K | 0.000597 1/K | 0.000587 1/K | 0.00058 1/K | 0.000573 1/K | 0.000566 1/K
348.15 K | 0.000653 1/K | 0.000639 1/K | 0.000623 1/K | 0.000613 1/K | 0.000604 1/K | 0.000595 1/K | 0.000586 1/K | 0.000578 1/K | 0.000569 1/K | 0.000563 1/K

CCCCn1cc[n+](C)c1.O=S(=O)([O-])C(F)(F)F [1-butyl-3-methylimidazolium trifluoromethanesulfonate]
isobaric coefficient of expansion
Conditions | 5000 kPa | 10000 kPa | 15000 kPa | 20000 kPa | 25000 kPa | 30000 kPa | 35000 kPa | 40000 kPa | 45000 kPa | 50000 kPa
278.15 K | 0.000621 1/K | 0.000612 1/K | 0.000603 1/K | 0.000599 1/K | 0.00059 1/K | 0.000585 1/K | 0.000579 1/K | 0.000575 1/K | 0.000566 1/K | 0.000561 1/K
288.15 K | 0.000617 1/K | 0.000607 1/K | 0.000599 1/K | 0.000593 1/K | 0.000588 1/K | 0.00058 1/K | 0.000574 1/K | 0.000566 1/K | 0.000561 1/K | 0.000558 1/K
298.15 K | 0.00061 1/K | 0.000604 1/K | 0.000595 1/K | 0.000588 1/K | 0.000581 1/K | 0.000574 1/K | 0.000566 1/K | 0.000559 1/K | 0.000554 1/K | 0.000549 1/K
308.15 K | 0.000606 1/K | 0.000597 1/K | 0.000587 1/K | 0.000581 1/K | 0.000574 1/K | 0.000568 1/K | 0.000562 1/K | 0.000556 1/K | 0.000548 1/K | 0.000543 1/K
318.15 K | 0.0006 1/K | 0.000595 1/K | 0.000585 1/K | 0.000579 1/K | 0.000571 1/K | 0.000564 1/K | 0.000557 1/K | 0.000551 1/K | 0.000544 1/K | 0.000539 1/K
328.15 K | 0.000596 1/K | 0.000586 1/K | 0.000581 1/K | 0.000574 1/K | 0.000565 1/K | 0.000559 1/K | 0.000552 1/K | 0.000544 1/K | 0.000538 1/K | 0.000534 1/K
338.15 K | 0.000594 1/K | 0.000585 1/K | 0.000578 1/K | 0.000571 1/K | 0.000562 1/K | 0.000556 1/K | 0.000548 1/K | 0.000542 1/K | 0.000537 1/K | 0.000532 1/K
348.15 K | 0.000591 1/K | 0.000583 1/K | 0.000574 1/K | 0.000568 1/K | 0.000559 1/K | 0.000552 1/K | 0.000547 1/K | 0.00054 1/K | 0.000535 1/K | 0.00053 1/K
